Reference: article PMC10139140, “Synthesis of Novel 2-(Cyclopentylamino)thiazol-4(5H)-one Derivatives with Potential Anticancer, Antioxidant, and 11β-HSD Inhibitory Activities” (International Journal of Molecular Sciences, 2023)
Entries after “also recorded” stand apart in the source; their conditions may differ.

Key:
U-118 MG cells [1] = test: Reactive nitrogen species level (DAF-2 diacetate probe), U-118 MG; format: cell-based; settings: 500 µM, 72 h
Description: (§1) The BJ (CRL-2522), Caco-2 (HTB-37), PANC-1 (CRL-1469), U-118 MG (HTB-15), SK-MEL-30 (ACC 151), and MDA-MB-231 (HTB-26) cell lines were purchased from ATCC (Manassas, VA, USA) or DSMZ (Braunschweig, GERMANY). Cells were cultured in accordance with manufacturers' recommendations in a DMEM, MEM, or RPMI-1640 (Sigma, Saint Louis, MO, USA; Gibco, Waltham, MA, USA), supplemented with 10% FBS, except for Caco-2 (20%) (Thermo Fisher Scientific, Waltham, MA, USA) and 1% antibiotic mix solution (penicillin, streptomycin; Thermo Fisher Scientific, Waltham, MA, USA) in a humidified atmosphere with 5% CO2 at 37 °C. All cell lines were cultured in T75 cell culture flasks or cell culture dishes to reach 80–90% confluency and seeded at a standard density of 5 × 10^3 cells/0.32 cm^2, except for BJ cells at 2 × 10^3 cells/0.32 cm^2.
(§2) The assay was performed following previously reported method. The cells (BJ, Caco-2, PANC-1, U-118 MG, SK-MEL-30, and MDA-MB-231) were seeded at an established density into 96-well black plates. Measurement of intracellular superoxide, nitric oxide, and free thiol levels were assessed with the use of fluorogenic probes: dihydroethidium (Cayman Chemical, Ann Arbor, MI, USA, #12013), DAF-2 diacetate (Cayman Chemical, Ann Arbor, MI, USA, #85165), and Thiol Tracker Violet (Thermo Scientific, Waltham, MA, USA, #T10095). After compound treatment (72 h), the cells were probed at a final concentration of 5 µM each for 15 min at 37 °C. Quantifications were taken with a BioTek–Synergy H1 microplate reader, and the results are presented as mean values + SD.

MDA-MB-231 cells [2] = test: Reactive nitrogen species level (DAF-2 diacetate probe), MDA-MB-231; format: cell-based, human; settings: MDA-MB-231, 500 µM, 72 h
Description: as §1
as §2, with “The cells (BJ, Caco-2, PANC-1, U-118 MG, SK-MEL-30, and MDA-MB-231) were seeded at an established density into 96-well black plates.” left out, “After compound treatment (72 h), the cells were probed at a final concentration of 5 µM each for 15 min at 37 °C.” left out

U-118 MG cells [3] = test: Reactive oxygen species level (dihydroethidium probe), U-118 MG; format: cell-based; settings: 500 µM, 72 h
Description: as §1, §2

BJ cells [4] = test: Reactive oxygen species level (dihydroethidium probe), BJ; format: cell-based; settings: 500 µM, 72 h
Description: as §1, §2

MDA-MB-231 cells [5] = test: Reactive oxygen species level (dihydroethidium probe), MDA-MB-231; format: cell-based, human; settings: MDA-MB-231, 500 µM, 72 h
Description: as §1, §2

Caco-2 cells = test: Reactive oxygen species level (dihydroethidium probe), Caco-2; format: cell-based, human; settings: Caco-2, 500 µM, 72 h
Description: as §1, §2

PANC-1 cells = test: Reactive nitrogen species level (DAF-2 diacetate probe), PANC-1; format: cell-based, human; settings: PANC-1, 500 µM, 72 h
Description: as §1
as §2, with “The cells (BJ, Caco-2, PANC-1, U-118 MG, SK-MEL-30, and MDA-MB-231) were seeded at an established density into 96-well black plates.” left out, “After compound treatment (72 h), the cells were probed at a final concentration of 5 µM each for 15 min at 37 °C.” left out

BJ cells [6] = test: Reactive nitrogen species level (DAF-2 diacetate probe), BJ; format: cell-based; settings: 500 µM, 72 h
Description: as §1
as §2, with “The cells (BJ, Caco-2, PANC-1, U-118 MG, SK-MEL-30, and MDA-MB-231) were seeded at an established density into 96-well black plates.” left out, “After compound treatment (72 h), the cells were probed at a final concentration of 5 µM each for 15 min at 37 °C.” left out

[7] = tested on: all cell lines tested (BJ, Caco-2, PANC-1, U-118 MG, SK-MEL-30, MDA-MB-231); test: Reduced glutathione level (Thiol Tracker Violet probe), all cell lines tested; format: cell-based; settings: 500 µM, 72 h
Description: as §1
as §2, with “The cells (BJ, Caco-2, PANC-1, U-118 MG, SK-MEL-30, and MDA-MB-231) were seeded at an established density into 96-well black plates.” left out, “After compound treatment (72 h), the cells were probed at a final concentration of 5 µM each for 15 min at 37 °C.” left out

Row | Structure (SMILES) | level of reactive nitrogen species (RNS) (U-118 MG cells [1]) | level of reactive oxygen species (ROS) (U-118 MG cells [3]) | level of reactive oxygen species (ROS) (BJ cells [4]) | level of reactive oxygen species (ROS) (MDA-MB-231 cells [5]) | level of reactive oxygen species (ROS) (Caco-2 cells) | also measured
1 | CC(C)C1SC(NC2CCCC2)=NC1=O (centres unmarked) [Compound 3d, 2-(cyclopentylamino)-5-isopropylthiazol-4(5H)-one] | increase | – | – | – | – | –
2 | CC1SC(NC2CCCC2)=NC1=O (centres unmarked) [Compound 3a, 2-(cyclopentylamino)-5-methylthiazol-4(5H)-one] | increase | high increase | – | – | – | level of reactive nitrogen species (RNS) (MDA-MB-231 cells [2]): increase
3 | O=C1N=C(NC2CCCC2)SC12CCCCC2 [Compound 3h, 2-(cyclopentylamino)-1-thia-3-azaspiro[4.5]dec-2-en-4-one] | increase | high increase | increase | increase | – | –
4 | O=C1N=C(NC2CCCC2)SC12CCC2 [Compound 3i, 6-(cyclopentylamino)-5-thia-7-azaspiro[3.4]oct-6-en-8-one] | – | high increase | increase | increase | high increase | –
5 | CC1(C)SC(NC2CCCC2)=NC1=O [Compound 3e, 2-(cyclopentylamino)-5,5-dimethylthiazol-4(5H)-one] | – | high increase | – | – | high increase | level of reactive nitrogen species (RNS) (PANC-1 cells): increase
6 | CCC1SC(NC2CCCC2)=NC1=O (centres unmarked) [Compound 3b, 2-(cyclopentylamino)-5-ethylthiazol-4(5H)-one] | – | high increase | – | – | high increase | level of reactive nitrogen species (RNS) (BJ cells [6]): increase
7 | CCCC1SC(NC2CCCC2)=NC1=O (centres unmarked) [Compound 3c, 2-(cyclopentylamino)-5-propylthiazol-4(5H)-one] | – | – | – | – | high increase | –
8 | O=C1N=C(NC2CCCC2)SC1c1ccc(Br)cc1 (centres unmarked) [Compound 3g, 2-(cyclopentylamino)-5-(4-bromophenyl)thiazol-4(5H)-one] | – | – | increase | increase | high increase | level of reduced glutathione [7]: low level; also recorded: especially strong reduction
